Test results taken from patent publication US8937058B2, “17-hydroxy-19-nor-21-carboxylic acid-steroid γ-lactone derivative, use thereof, and medicament containing the derivative” (priority 2007, dated 2015).
pEC50, pIC50: −log10 of the molar value. Where two headings read alike, the source gives them in different places.

Columns and labels:
[1] = target: T1, mineralocorticoid receptor (Homo sapiens (Human), UniProt P08235); experiment: Antimineralocorticoid action by transactivation test (MDCK luciferase reporter cells); format: cell-based; settings: in-vitro transactivation, 1 nM aldosterone; for pIC50: read-out: Mineralocorticoid receptor Antagonism IC50
Experimental: 5. Determination of Antimineralocorticoid Action by Means of Transactivation Tests:
The antimineralocorticoid activity of the test substances was determined as for the transactivation tests described above.
The following modifications were undertaken: In this case reporter cell lines were used (MDCK cells) that express the human mineralocorticoid receptor, and transiently contain a reporter construct that contains luciferase under the control of a steroid hormone-responsive promoter.
For determination of antimineralocorticoid efficacy, 1 nM aldosterone (SIGMA A-6628, Lot 22H4033) was added to the cells, to achieve almost maximum stimulation of the reporter gene. Inhibition of the effect indicated a mineralocorticoid-antagonistic action of the substances (Table 2; for comparison, corresponding values for drospirenone (A)).

androgen receptor [2] = target: T2, androgen receptor (Homo sapiens (Human), UniProt P10275); experiment: cell-based; settings: for Androgen receptor Agonism efficacy / Androgen receptor Antagonism efficacy: in-vitro transactivation, PC3 cells; for Androgen receptor Antagonism efficacy: 0.05 nM R1881
Experimental: 6. Determination of Androgenic/Antiandrogenic Action by Means of Transactivation Tests:
The androgenic/antiandrogenic action of the test substances was determined as for the transactivation tests described above.
The following modifications were made: In this case reporter cell lines were used (PC3 cells) that express the androgen receptor, and a reporter construct that contains luciferase under the control of a steroid hormone-responsive promoter.
For determination of the antiandrogenic efficacy, 0.05 nM R1881 was added to the cells, in order to achieve almost maximum stimulation of the reporter gene.

[3] = target: T1, mineralocorticoid receptor; experiment: Mineralocorticoid receptor binding test (displacement of 3H-aldosterone, cytosol from Hi5 insect cells); settings: reference substance 3H-aldosterone
Experimental: 2. Mineralocorticoid Receptor Binding Test:
The test was carried out as in 1., with the following modifications: cytosol from mineralocorticoid receptor-expressing insect cells (Hi5) was used, and the reference substance was ^3H-aldosterone.

[4] = target: fusion protein from the PR-ligand-binding domain and a Gal4-transactivation domain (Homo sapiens (Human), UniProt P06401); experiment: cell-based; settings: for Progesterone receptor Agonism efficacy / Progesterone receptor Agonism EC50: in-vitro transactivation, CHO K1 reporter cells; for Progesterone receptor Agonism EC50: 16 hours
Experimental: 4. Determination of Progestational Action by Means of Transactivation Tests:
The test compounds were added eight hours later, and the cells were incubated with the compounds for 16 hours. The tests were carried out in triplicate. At the end of incubation the medium containing the effector was removed and replaced with lysis buffer. After luciferase assay substrate (Promega, #E1501) had been added, the 96-well plates were then put in a microplate luminometer (Pherastar, BMG Labtech), and the luminescence was measured. The IC50 values were evaluated using software for calculating dose-effect relations.

progesterone receptor = progesterone receptor (Homo sapiens (Human), UniProt P06401); settings: for Progesterone receptor (PR) Competition factor: CF of 1 = affinity of progesterone, CF >1 lower affinity; for pIC50: read-out: Progesterone receptor (PR) IC50, receptor binding, 3H-progesterone displacement; for CF PR/CF MR: ratio of the competition factors CF(PR) and CF(MR)
Experimental: Progesterone Receptor Binding Test:
Using cytosol from progesterone receptor-expressing insect cells (Hi5), competitive binding to the progesterone receptor was determined from the ability to displace ^3H-progesterone as reference substance from the receptor.

androgen receptor [5] = target: T2, androgen receptor; settings: for pIC50: read-out: Androgen receptor IC50, receptor binding, 3H-testosterone displacement; for Androgen receptor Competition factor: reference substance 3H-testosterone
Experimental: 3. Androgen Receptor Binding Test:
The test was carried out as in 1., with the following modifications: cytosol from androgen receptor-expressing insect cells (Hi5) was used, and the reference substance was ^3H-testosterone.

T2 sequence (P10275 whole entry, species assumed): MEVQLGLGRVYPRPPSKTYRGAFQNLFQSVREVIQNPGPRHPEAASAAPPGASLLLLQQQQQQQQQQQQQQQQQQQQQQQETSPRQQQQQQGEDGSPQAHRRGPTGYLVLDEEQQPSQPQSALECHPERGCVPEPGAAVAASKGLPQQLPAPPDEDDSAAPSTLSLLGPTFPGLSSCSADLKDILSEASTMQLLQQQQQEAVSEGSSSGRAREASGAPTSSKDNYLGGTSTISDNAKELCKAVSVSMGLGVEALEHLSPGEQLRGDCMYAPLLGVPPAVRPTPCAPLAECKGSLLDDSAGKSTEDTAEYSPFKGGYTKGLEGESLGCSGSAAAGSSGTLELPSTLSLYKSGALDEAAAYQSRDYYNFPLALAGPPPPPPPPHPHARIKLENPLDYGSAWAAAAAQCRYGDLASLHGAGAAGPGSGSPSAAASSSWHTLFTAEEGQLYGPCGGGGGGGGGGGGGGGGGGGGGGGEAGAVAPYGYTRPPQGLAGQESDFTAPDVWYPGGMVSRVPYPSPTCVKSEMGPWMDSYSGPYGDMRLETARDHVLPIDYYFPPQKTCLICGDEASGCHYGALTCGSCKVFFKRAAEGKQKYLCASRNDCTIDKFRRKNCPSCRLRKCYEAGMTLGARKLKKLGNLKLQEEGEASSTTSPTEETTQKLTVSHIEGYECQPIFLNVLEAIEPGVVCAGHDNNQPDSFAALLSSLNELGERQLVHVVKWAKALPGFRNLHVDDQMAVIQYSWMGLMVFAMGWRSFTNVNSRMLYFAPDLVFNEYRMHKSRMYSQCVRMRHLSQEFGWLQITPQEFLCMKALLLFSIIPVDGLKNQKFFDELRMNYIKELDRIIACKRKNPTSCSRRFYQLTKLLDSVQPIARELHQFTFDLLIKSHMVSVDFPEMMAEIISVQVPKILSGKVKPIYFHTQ
T1 sequence (P08235 whole entry): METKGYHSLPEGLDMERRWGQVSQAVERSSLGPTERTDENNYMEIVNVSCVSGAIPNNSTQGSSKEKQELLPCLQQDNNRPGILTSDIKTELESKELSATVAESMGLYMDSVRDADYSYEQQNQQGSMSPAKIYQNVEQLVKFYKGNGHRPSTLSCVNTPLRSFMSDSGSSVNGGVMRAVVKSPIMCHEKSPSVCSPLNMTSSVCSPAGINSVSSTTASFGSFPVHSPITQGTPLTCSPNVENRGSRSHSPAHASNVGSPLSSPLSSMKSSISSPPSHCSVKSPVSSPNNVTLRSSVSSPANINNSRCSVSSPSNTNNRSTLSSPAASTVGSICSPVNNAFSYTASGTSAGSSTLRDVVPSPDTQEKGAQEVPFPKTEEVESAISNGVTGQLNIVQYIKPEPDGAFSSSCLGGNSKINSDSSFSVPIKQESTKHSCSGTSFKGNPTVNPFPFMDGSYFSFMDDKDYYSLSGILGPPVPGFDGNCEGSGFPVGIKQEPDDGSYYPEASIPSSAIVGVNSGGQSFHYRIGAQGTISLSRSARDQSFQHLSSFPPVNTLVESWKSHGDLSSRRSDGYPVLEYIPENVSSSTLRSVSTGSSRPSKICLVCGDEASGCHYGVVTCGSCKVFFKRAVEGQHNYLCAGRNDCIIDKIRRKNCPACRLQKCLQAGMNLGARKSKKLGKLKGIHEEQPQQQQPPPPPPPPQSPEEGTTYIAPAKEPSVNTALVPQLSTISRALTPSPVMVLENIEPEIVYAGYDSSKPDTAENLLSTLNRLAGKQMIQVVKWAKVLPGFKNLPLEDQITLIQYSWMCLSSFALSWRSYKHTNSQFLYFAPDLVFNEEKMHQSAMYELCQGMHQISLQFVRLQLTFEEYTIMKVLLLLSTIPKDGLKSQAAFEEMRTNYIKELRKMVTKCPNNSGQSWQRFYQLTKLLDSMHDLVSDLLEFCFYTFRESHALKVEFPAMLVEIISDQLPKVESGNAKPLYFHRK
progesterone receptor, sequence (P06401 whole entry, species assumed): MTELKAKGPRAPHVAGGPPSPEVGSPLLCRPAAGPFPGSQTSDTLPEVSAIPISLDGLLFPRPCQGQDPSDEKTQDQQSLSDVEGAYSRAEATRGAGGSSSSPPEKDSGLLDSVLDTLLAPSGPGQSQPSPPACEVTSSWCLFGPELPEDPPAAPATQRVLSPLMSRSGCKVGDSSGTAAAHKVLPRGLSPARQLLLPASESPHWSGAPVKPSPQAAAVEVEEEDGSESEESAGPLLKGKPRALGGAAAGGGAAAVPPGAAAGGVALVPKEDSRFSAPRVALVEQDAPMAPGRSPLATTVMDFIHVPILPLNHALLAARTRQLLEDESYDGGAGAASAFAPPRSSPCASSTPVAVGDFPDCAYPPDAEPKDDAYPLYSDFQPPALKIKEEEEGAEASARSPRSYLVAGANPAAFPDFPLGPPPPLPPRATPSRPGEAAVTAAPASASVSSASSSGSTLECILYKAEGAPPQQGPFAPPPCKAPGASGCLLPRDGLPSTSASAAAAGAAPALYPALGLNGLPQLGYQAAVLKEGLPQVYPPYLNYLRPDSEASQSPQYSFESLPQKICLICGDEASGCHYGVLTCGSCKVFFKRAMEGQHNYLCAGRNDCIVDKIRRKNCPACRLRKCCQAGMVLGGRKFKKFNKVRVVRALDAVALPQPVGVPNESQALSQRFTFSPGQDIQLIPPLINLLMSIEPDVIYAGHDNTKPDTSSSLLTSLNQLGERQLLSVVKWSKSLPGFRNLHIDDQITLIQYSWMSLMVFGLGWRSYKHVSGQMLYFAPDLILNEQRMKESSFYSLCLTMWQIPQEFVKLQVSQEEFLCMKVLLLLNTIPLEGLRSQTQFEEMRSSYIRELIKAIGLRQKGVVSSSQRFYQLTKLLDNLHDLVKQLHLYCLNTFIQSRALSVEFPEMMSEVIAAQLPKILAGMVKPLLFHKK
fusion protein from the PR-ligand-binding domain and a Gal4-transactivation domain, sequence (P06401 679-913): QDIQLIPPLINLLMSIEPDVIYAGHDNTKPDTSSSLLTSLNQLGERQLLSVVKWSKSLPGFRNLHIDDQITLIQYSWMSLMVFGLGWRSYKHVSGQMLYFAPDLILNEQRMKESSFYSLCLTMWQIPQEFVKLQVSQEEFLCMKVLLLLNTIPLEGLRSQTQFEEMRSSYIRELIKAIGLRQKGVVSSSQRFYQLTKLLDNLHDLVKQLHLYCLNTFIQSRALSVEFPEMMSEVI

Structure (SMILES) | Mineralocorticoid receptor Antagonism efficacy [1] [%] | pIC50 [1] | pEC50 (androgen receptor [2]) | pIC50 (androgen receptor [2]) | Androgen receptor Agonism efficacy (androgen receptor [2]) [%] | Androgen receptor Antagonism efficacy (androgen receptor [2]) [%] | Mineralocorticoid receptor (MR) Competition factor [3] | pEC50 [4] | Progesterone receptor Agonism efficacy [4] [%] | Progesterone receptor (PR) Competition factor (progesterone receptor) | pIC50 (progesterone receptor) | pIC50 (androgen receptor [5]) | Androgen receptor Competition factor (androgen receptor [5]) | Mineralocorticoid receptor Antagonism IC50 [1] | CF PR/CF MR (progesterone receptor) | Progesterone receptor Agonism EC50 [4]
C[C@]12CC[C@H]3[C@@H](CC4(CC4)C4=CC(=O)CC[C@@H]43)[C@@H]1CC[C@@]21C=CC(=O)O1 [Example 18, 6,6-(1,2-Ethanediyl)-17β-hydroxy-19-nor-17α-pregna-4,20(Z)-dien-3-one-21-carboxylic acid γ-lactone] | 89.3 | 6.28 | 8.43 | 6.00 | 87.91 | 5 |  |  |  |  |  |  |  |  |  | 
C[C@@H]1CC2=CC(=O)CC[C@@H]2[C@H]2CC[C@@]3(C)[C@@H](CC[C@@]34C=CC(=O)O4)[C@@H]21 (stereo in doubt) [Example 2A, 17β-Hydroxy-7α-methyl-19-nor-17α-pregna-4,20(Z)-dien-3-one-21-carboxylic acid γ-lactone] | 129.8 | 6.74 |  |  |  |  | 7.6 | 6.66 | 44.4 | 8.33 | 6.51 |  |  |  |  | 
CC[C@]12CC[C@H]3[C@@H](CCC4=C(Cl)C(=O)CC[C@@H]43)[C@@H]1CC[C@@]21C=CC(=O)O1 [Example 13, 4-Chloro-17β-hydroxy-18-methyl-19-nor-17α-pregna-4,20(Z)-dien-3-one-21-carboxylic acid γ-lactone] |  |  | 7.24 | 7.92 | 33.71 | 44.18 | 47.0 | 6.00 | 25.3 | 28.06 | 6.12 | 6.77 | 8.3 | inactive | 0.60 | 
CC[C@@H]1CC2=CC(=O)CC[C@@H]2[C@H]2CC[C@@]3(C)[C@@H](CC[C@@]34C=CC(=O)O4)[C@H]12 (stereo in doubt) [Example 3A, 17β-Hydroxy-7α-ethyl-19-nor-17α-pregna-4,20(Z)-dien-3-one-21-carboxylic acid γ-lactone] | 55.9 | 6.44 | 7.60 | 7.96 | 30.25 | 41.26 | 8.7 | 6.11 | 16.2 | 54.22 | 5.89 | 7.05 | 2.8 |  | 6.23 | 
CC[C@]12CC[C@H]3[C@@H](CC4(CC4)C4=CC(=O)CC[C@@H]43)[C@@H]1CC[C@@]21C=CC(=O)O1 [Example 16, 6,6-(1,2-Ethanediyl)-17β-hydroxy-18-methyl-19-nor-17α-pregna-4,20(Z)-dien-3-one-21-carboxylic acid γ-lactone] | 107.9 | 7.12 | 8.96 | 6.00 | 91.19 | 5 |  |  |  |  |  |  |  |  |  | 
C[C@]12CCC(=O)C=C1[C@@H]1C[C@@H]1[C@H]1[C@@H]3[C@@H]4C[C@@H]4[C@@]4(CCC(=O)O4)[C@@]3(C)CC[C@@H]12 [A, 6β,7β;15γ,16β-dimethylene-3-oxo-17-pregn-4-ene-21,17β-carbolactone, reference compound] | 64.1 |  |  |  |  |  |  |  | 72.2 |  |  |  |  |  |  | 
CC[C@]12CC[C@H]3[C@@H](C=CC4=CC(=O)CC[C@@H]43)[C@@H]1CC[C@@]21C=CC(=O)O1 (stereo in doubt) [Example 7, 17β-Hydroxy-18-methyl-19-nor-17α-pregna-4,6,20(Z)-trien-3-one-21-carboxylic acid γ-lactone] | 94.2 | 7.00 | 6.00 | 7.00 | 5 | 59.23 | 3.9 |  |  | 6.15 | 6.96 | 5.59 | 112.0 |  | 1.58 | inactive
C[C@]12CC[C@H]3[C@@H]([C@H](C4CC4)CC4=CC(=O)CC[C@@H]43)[C@@H]1CC[C@@]21C=CC(=O)O1 (stereo in doubt) [Example 12A, 17β-Hydroxy-7α-cyclopropyl-19-nor-17α-pregna-4,20(Z)-dien-3-one-21-carboxylic acid γ-lactone] | 116.9 | 6.96 | 7.17 | 7.32 | 21.13 | 69.75 | 12.1 |  |  | 109.04 | 5.59 | 6.52 | 9.6 |  | 9.01 | inactive
CC[C@]12CC[C@H]3[C@@H](CCC4=CC(=O)CC[C@@H]43)[C@@H]1CC[C@@]21C=CC(=O)O1 (stereo in doubt) [Example 6, 17β-Hydroxy-18-methyl-19-nor-17α-pregna-4,20(Z)-dien-3-one-21-carboxylic acid γ-lactone] | 109.6 | 7.92 | 7.28 | 7.72 | 59.8 | 33.8 | 2.4 |  |  | 3.07 | 7.35 | 7.55 | 3.4 |  | 1.28 | 
CC[C@@H]1CC2=CC(=O)CC[C@@H]2[C@H]2CC[C@@]3(CC)[C@@H](CC[C@@]34C=CC(=O)O4)[C@H]12 (stereo in doubt) [Example 9A, 17β-Hydroxy-7α-ethyl-18-methyl-19-nor-17α-pregna-4,20(Z)-dien-3-one-21-carboxylic acid γ-lactone] | 97.6 | 6.89 | 8.29 | 6.00 | 63.33 | 5 | 1.6 |  |  | 25.12 | 6.17 | 7.12 | 2.3 |  | 15.70 | inactive
C[C@]12CC[C@H]3[C@@H](C[C@@H](CO)C4=CC(=O)CC[C@@H]43)[C@@H]1CC[C@@]21C=CC(=O)O1 [Example 17, 17β-Hydroxy-6β-hydroxymethylene-19-nor-17α-pregna-4,20(Z)-dien-3-one-21-carboxylic acid γ-lactone] |  |  |  |  |  |  |  |  |  |  |  |  |  | inactive |  | inactive
CC[C@]12CC[C@H]3[C@@H](C[C@@H](CO)C4=CC(=O)CC[C@@H]43)[C@@H]1CC[C@@]21C=CC(=O)O1 [Example 15] |  |  | 6.00 | 6.00 | 5 | 5 |  |  |  |  |  |  |  | inactive |  | inactive
C[C@]12CC[C@H]3[C@@H](C=CC4=CC(=O)CC[C@@H]43)[C@@H]1CC[C@@]21C=CC(=O)O1 (stereo in doubt) [Example 1, 17β-Hydroxy-19-nor-17α-pregna-4,6,20(Z)-trien-3-one-21-carboxylic acid γ-lactone] | 93.2 | 6.06 | 6.89 | 6.00 | 44.27 | 5 | 33.0 |  |  |  |  | 5.00 | 1000.0 |  |  | 
